The text below walks through data of patent publication US10703764B2, “Benzopiperazine compositions as BET bromodomain inhibitors” (FORMA Therapeutics, Inc., priority 2013, dated 2020).

A value given as a limit tells only on which side of the number the result lay.

One experiment has as its target T1, BRD4 BD2 (Homo sapiens, UniProt O60885).
T1 construct: made in house
The experiment is described as follows: AlphaScreen binding assay, BRD4 Bromodomain 2. An outline of the steps: (§1)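 Compound dilution series were mixed with His-tagged BRD4 bromodomain and biotinylated tetra-acetylated H4 (1-21) peptide at pH 7.3 (BD1 and peptide at 50 nM, BD2 and peptide at 100 nM). Donor and acceptor beads were then added, and plates were equilibrated at least 1 h before reading. IC50 values were fitted with a four-parameter logistic model.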
On the technique in general: In Alpha technology, singlet oxygen from a donor bead excites a nearby acceptor bead.

The next experiment relates to MV4-11 cells. The experiment can be described thus: Oncology cell growth assay (3-day proliferation, CellTiter-Glo). The class given is cell-based. To be noted: Homo sapiens, MV4-11, 72 h, AML cell line MV4-11, 72 hours, compounds grouped by IC50 range, read-out: MV4-11 IC50 (inhibition of proliferation, gIC50). An outline of the steps:
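A 3-day proliferation test used MV4-11 cells seeded at 3000 per well with eight compound concentrations (10 μM top, 3-fold dilution) at 37° C in 5% CO2. CellTiter-Glo luminescence defined viable cell signal. A four-parameter logistic curve against DMSO and background wells gave the gIC50.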

The next experiment concerns the target T2, BRD4 BD1 (Homo sapiens, UniProt O60885).
T2 construct: made in house
The experiment is described as follows: AlphaScreen binding assay, BRD4 Bromodomain 1. In outline: as §1

With `CC(=O)N1c2ccc(-c3cnn(Cc4cc(C)no4)c3)cc2N(C(=O)OC(C)C)C[C@@H]1C` [Example I-141, (S)-isopropyl 4-acetyl-3-methyl-7-(1-((3-methylisoxazol-5-yl)methyl)-1H-pyrazol-4-yl)-3,4-dihydroquinoxaline-1(2H)-carboxylate], the IC50 is < 50 nM at BRD4 BD2, 100 to 500 nM in the experiment with MV4-11 cells and 100 to 1000 nM at BRD4 BD1.

For `CC(=O)N1c2ccc(-c3cnn(Cc4cncs4)c3)cc2N(C(=O)OC(C)C)C[C@@H]1C` [Example I-143, (S)-isopropyl 4-acetyl-3-methyl-7-(1-(thiazol-5-ylmethyl)-1H-pyrazol-4-yl)-3,4-dihydroquinoxaline-1(2H)-carboxylate], the IC50 is 50 to 500 nM at BRD4 BD2, 100 to 500 nM in the experiment on MV4-11 cells and 100 to 1000 nM at BRD4 BD1.

With `CC(=O)N1c2ccc(-c3cnn(C4COC4)c3)cc2N(C(=O)OC(C)C)C[C@@H]1C` [Example I-144, (S)-isopropyl 4-acetyl-3-methyl-7-(1-(oxetan-3-yl)-1H-pyrazol-4-yl)-3,4-dihydroquinoxaline-1(2H)-carboxylate], the IC50 is < 50 nM on BRD4 BD2, 100 to 500 nM with MV4-11 cells and < 100 nM at BRD4 BD1.

Take `CC(=O)N1c2ccc(-c3cnn(CC(C)(C)F)c3)cc2N(C(=O)C2CC2)C[C@@H]1C` [Example I-145, (S)-1-(4-(cyclopropanecarbonyl)-6-(1-(2-fluoro-2-methylpropyl)-1H-pyrazol-4-yl)-2-methyl-3,4-dihydroquinoxalin-1 (2H)-yl)ethanone]: the IC50 was 50 to 500 nM at BRD4 BD2, > 500 nM with MV4-11 cells and 100 to 1000 nM on BRD4 BD1.

Consider `CC(=O)N1c2ccc(-c3cnn(CCN(C)C)c3)cc2N(C(=O)C2CC2)C[C@@H]1C` [Example I-146, (S)-1-(4-(cyclopropanecarbonyl)-6-(1-(2-(dimethylamino)ethyl)-1H-pyrazol-4-yl)-2-methyl-3,4-dihydroquinoxalin-1 (2H)-yl)ethanone], for which the IC50 on BRD4 BD2 is 50 to 500 nM; in the experiment with MV4-11 cells, > 500 nM; on BRD4 BD1, 1000 to 10000 nM.

For `CC(=O)N1c2ccc(-c3cnn(Cc4nonc4C)c3)cc2N(C(=O)C2CC2)C[C@@H]1C` [Example I-147, (S)-1-(4-(cyclopropanecarbonyl)-2-methyl-6-(1-((4-methyl-1,2,5-oxadiazol-3-yl)methyl)-1H-pyrazol-4-yl)-3,4-dihydroquinoxalin-1 (2H)-yl)ethanone], the IC50 on BRD4 BD2 lay in the range of 50 to 500 nM; in the experiment with MV4-11 cells, 100 to 500 nM; at BRD4 BD1 it was 100 to 1000 nM.

`CC(=O)N1c2ccc(-c3cnn(CC4CC4(F)F)c3)cc2N(C(=O)C2CC2)C[C@@H]1C` (stereo partly drawn) [Example I-148, 1-((S)-4-(cyclopropanecarbonyl)-6-(1-((2,2-difluorocyclopropyl)methyl)-1H-pyrazol-4-yl)-2-methyl-3,4-dihydroquinoxalin-1(2H)-yl)ethanone]: the IC50 at BRD4 BD2 fell in the range of 50 to 500 nM; in the experiment on MV4-11 cells, 100 to 500 nM; on BRD4 BD1, 100 to 1000 nM.

On to `CC(=O)N1c2ccc(-c3cnn(Cc4cc(C)no4)c3)cc2N(C(=O)C2CC2)C[C@@H]1C` [Example I-149, (S)-1-(4-(cyclopropanecarbonyl)-2-methyl-6-(1-((3-methylisoxazol-5-yl)methyl)-1H-pyrazol-4-yl)-3,4-dihydroquinoxalin-1 (2H)-yl)ethanone], for which the figures for the IC50 on BRD4 BD2, in the experiment with MV4-11 cells and on BRD4 BD1 were 50 to 500 nM, 100 to 500 nM and 100 to 1000 nM, respectively.

As to `CC(=O)N1c2ccc(-c3cnn(CCC(F)(F)F)c3)cc2N(C(=O)C2CC2)C[C@@H]1C` [Example I-150, (S)-1-(4-(cyclopropanecarbonyl)-2-methyl-6-(1-(3,3,3-trifluoropropyl)-1H-pyrazol-4-yl)-3,4-dihydroquinoxalin-1(2H)-yl)ethanone], the IC50 is < 50 nM on BRD4 BD2, > 500 nM with MV4-11 cells and 100 to 1000 nM on BRD4 BD1.

As for `CC(=O)N1c2ccc(-c3cnn(C4CNC4)c3)cc2N(C(=O)OC2CC(F)(F)C2)C[C@@H]1C` [Example I-152, (S)-3,3-difluorocyclobutyl 4-acetyl-7-(1-(azetidin-3-yl)-1H-pyrazol-4-yl)-3-methyl-3,4-dihydroquinoxaline-1(2H)-carboxylate], the IC50 at BRD4 BD2 is < 50 nM; with MV4-11 cells, 100 to 500 nM; on BRD4 BD1 it was 100 to 1000 nM.

For `CC(=O)N1c2ccc(-c3cnn(C4CCNCC4)c3)cc2N(C(=O)OC2CCC(F)(F)CC2)C[C@@H]1C` [Example I-153, (S)-4,4-difluorocyclohexyl 4-acetyl-3-methyl-7-(1-(piperidin-4-yl)-1H-pyrazol-4-yl)-3,4-dihydroquinoxaline-1(2H)-carboxylate], the results for the IC50 at BRD4 BD2, with MV4-11 cells and on BRD4 BD1 were 50 to 500 nM, 100 to 500 nM and 100 to 1000 nM, respectively.

Turning to `CC(=O)N1c2ccc(-c3cnn(C4CCCS(=O)(=O)C4)c3)cc2N(C(=O)OC2CCC2)C[C@@H]1C` (stereo partly drawn) [Example I-158, cyclobutyl (3S)-4-acetyl-7-[1-(1,1-dioxo-16-thian-3-yl)-1H-pyrazol-4-yl]-3-methyl-1,2,3,4-tetrahydroquinoxaline-1-carboxylate], the figures for the IC50 at BRD4 BD2, with MV4-11 cells and on BRD4 BD1 were < 50 nM, 100 to 500 nM and 100 to 1000 nM, respectively.

`CC(=O)N1c2ccc(-c3cnn(C4CCCS(=O)(=O)C4)c3)cc2N(C(=O)OC2CCOCC2)C[C@@H]1C` (stereo partly drawn) [Example I-161, oxan-4-yl (3S)-4-acetyl-7-[1-(1,1-dioxo-1λ^6-thian-3-yl)-1H-pyrazol-4-yl]-3-methyl-1,2,3,4-tetrahydroquinoxaline-1-carboxylate]: the IC50 on BRD4 BD2 lay in the range of 50 to 500 nM; in the experiment with MV4-11 cells it was 100 to 500 nM; at BRD4 BD1 it was 100 to 1000 nM.

As to `CC(=O)N1c2ccc(-c3cnn(C4CCCS(=O)(=O)C4)c3)cc2N(C(=O)OC2CC(F)(F)C2)C[C@@H]1C` (stereo partly drawn) [Example I-162, 3,3-difluorocyclobutyl (3S)-4-acetyl-7-[1-(1,1-dioxo-1λ^6-thian-3-yl)-1H-pyrazol-4-yl]-3-methyl-1,2,3,4-tetrahydroquinoxaline-1-carboxylate], the IC50 on BRD4 BD2 lay within 50 to 500 nM; in the experiment on MV4-11 cells, 100 to 500 nM; at BRD4 BD1, 100 to 1000 nM.

For the molecule `CC(=O)N1c2ccc(-c3cnn(C4CC4)c3)cc2N(c2nn(C)c3c(F)cccc23)C[C@@H]1C` [Example I-179, 1-[(2S)-6-(1-cyclopropyl-1H-pyrazol-4-yl)-4-(7-fluoro-1-methyl-1H-indazol-3-yl)-2-methyl-1,2,3,4-tetrahydroquinoxalin-1-yl]ethan-1-one], the IC50 at BRD4 BD2 was < 50 nM; with MV4-11 cells it was 100 to 500 nM; on BRD4 BD1, 100 to 1000 nM.

For the molecule `CC(=O)N1c2ccc(-c3cnn(CCO)c3)cc2N(c2nn(C)c3c(F)cccc23)C[C@@H]1C` [Example I-180, 1-[(2S)-4-(7-fluoro-1-methyl-1H-indazol-3-yl)-6-[1-(2-hydroxyethyl)-1H-pyrazol-4-yl]-2-methyl-1,2,3,4-tetrahydroquinoxalin-1-yl]ethan-1-one], the IC50 on BRD4 BD2 is < 50 nM; with MV4-11 cells it was 100 to 500 nM; on BRD4 BD1 it was 1000 to 10000 nM.

`CC(=O)N1c2ccc(-c3cnn(C4CCNCC4)c3)cc2N(c2nn(C)c3ccccc23)C[C@@H]1C` [Example I-181, 1-[(2S)-2-methyl-4-(1-methyl-1H-indazol-3-yl)-6-[1-(piperidin-4-yl)-1H-pyrazol-4-yl]-1,2,3,4-tetrahydroquinoxalin-1-yl]ethan-1-one]: the values for the IC50 on BRD4 BD2, in the experiment on MV4-11 cells and on BRD4 BD1 were < 50 nM, < 100 nM and 100 to 1000 nM, respectively.

In the case of `CC(=O)N1c2ccc(-c3cnn(C4CCNCC4)c3)cc2N(c2nn(C)c3cnccc23)C[C@@H]1C` [Example I-182, (S)-1-(2-methyl-4-(1-methyl-1H-pyrazolo[3,4-c]pyridin-3-yl)-6-(1-(piperidin-4-yl)-1H-pyrazol-4-yl)-3,4-dihydroquinoxalin-1(2H)-yl)ethanone], the IC50 at BRD4 BD2 is < 50 nM; in the experiment on MV4-11 cells it was 100 to 500 nM; at BRD4 BD1, 100 to 1000 nM.

Turning to `CC(=O)N1c2ccc(-c3cnn(C4CC4)c3)cc2N(c2nn(C)c3cccc(F)c23)C[C@@H]1C` [Example I-183, 1-[(2S)-6-(1-cyclopropyl-1H-pyrazol-4-yl)-4-(4-fluoro-1-methyl-1H-indazol-3-yl)-2-methyl-1,2,3,4-tetrahydroquinoxalin-1-yl]ethan-1-one], the IC50 at BRD4 BD2 was < 50 nM; with MV4-11 cells it was 100 to 500 nM; on BRD4 BD1 it was 100 to 1000 nM.

`CC(=O)N1c2ccc(-c3cnn(C4CC4)c3)cc2N(c2nn(C)c3ncccc23)C[C@@H]1C` [Example I-184, 1-[(2S)-6-(1-cyclopropyl-1H-pyrazol-4-yl)-2-methyl-4-{1-methyl-1H-pyrazolo[3,4-b]pyridin-3-yl}-1,2,3,4-tetrahydroquinoxalin-1-yl]ethan-1-one]: the IC50 on BRD4 BD2 lay in the range of 50 to 500 nM; in the experiment on MV4-11 cells, 100 to 500 nM; on BRD4 BD1, 100 to 1000 nM.

Consider `CC(=O)N1c2ccc(-c3cnn(C4CC4)c3)cc2N(c2nn(C)c3cnccc23)C[C@@H]1C` [Example I-185, 1-[(2S)-6-(1-cyclopropyl-1H-pyrazol-4-yl)-2-methyl-4-{1-methyl-1H-pyrazolo[3,4-c]pyridin-3-yl}-1,2,3,4-tetrahydroquinoxalin-1-yl]ethan-1-one], for which the IC50 at BRD4 BD2 is < 50 nM; with MV4-11 cells, < 100 nM; on BRD4 BD1, 100 to 1000 nM.

For the molecule `CC(=O)N1c2ccc(-c3cnn(C4CC4)c3)cc2N(c2nn(C)c3ccncc23)C[C@@H]1C` [Example I-186, 1-[(2S)-6-(1-cyclopropyl-1H-pyrazol-4-yl)-2-methyl-4-{1-methyl-1H-pyrazolo[4,3-c]pyridin-3-yl}-1,2,3,4-tetrahydroquinoxalin-1-yl]ethan-1-one], the IC50 lay in the range of 50 to 500 nM on BRD4 BD2, 100 to 500 nM in the experiment with MV4-11 cells and 100 to 1000 nM on BRD4 BD1.
